Test results reported in PMC6102670, “Three New Highly Oxygenated Germacranolides from Carpesium Divaricatum and Their Cytotoxic Activity” (Molecules : A Journal of Synthetic Chemistry and Natural …, 2018).
Where two headings read alike, the source gives them in different places.

Experiments:
Format in all cases: cell-based, Human
Conditions in all cases: 4 days incubation, mean ± SD, triplicate
[1] = tested on: HeLa cervical cancer cell line; experiment: MTT cytotoxicity assay, HeLa cells
Experimental: (§1) Cell cultures: Human A549, HepG2, and HeLa cell lines from Cancer Institute and Hospital of Chinese Academy of Medical Sciences (Beijing, China), were cultured in Dulbecco’s modified Eagle’s medium (DMEM, Gibco, CA, USA) supplemented with 10% (v/v) fetal calf serum (Gibco, CA, USA), penicillin G (Macgene, China) 100 units mL^−1 and streptomycin (Macgene, China) 100 μg mL^−1, at 37 °C under 5% CO2.
(§2) Cell viability assay: The assay was run in triplicate. In a 96-well plate, each well was plated with 2 × 10^4 cells. After cell attachment overnight, the medium was removed, and each well was treated with 100 μL of medium containing 0.1% DMSO or different concentrations of the test compounds and the positive control cis-platin. The plate was incubated at 37 °C for 4 days in a humidified, 5% CO2 atmosphere. Cytotoxicity was determined using a modified 3-(4,5-dimethylthiazol-2-yl)-2,5-diphenyltetrazolium bromide (MTT) colorimetric assay. After the addition of a 10 μL MTT solution (5 mg/mL), cells were incubated at 37 °C for 4 h. After adding 150 μL DMSO, cells were shaken to mix thoroughly. The absorbance of each well was measured at 540 nm in a Multiscan photometer.
(§3) Statistical analysis: Values were expressed as mean ± SD. Statistical analyses were performed using the Student’s t-test. Differences were considered significant when associated with a probability of 5% or less (p ≤ 0.05).

[2] = tested on: Hep G2 hepatocellular cancer cell line; experiment: MTT cytotoxicity assay, Hep G2 cells
Experimental: as §1, §2, §3

[3] = tested on: A549 lung cancer cell line; experiment: MTT cytotoxicity assay, A549 cells
Experimental: as §1, §2, §3

Row | Structure (SMILES) | IC50 ([1]; Homo sapiens, 96 h) | IC50 ([2]; Homo sapiens, HepG2, 96 h) | IC50 ([3]; Homo sapiens, 96 h) | IC50 [1] | IC50 ([2]; read-out: IC50 (μM) HepG2) | IC50 [3]
1 | C=C1C(=O)O[C@H]2[C@H]1[C@@H](O)[C@H](OC(=O)CC(C)C)[C@H](C)CCC(=O)[C@](C)(O)[C@@H]2OC(=O)C(C)C [Compound 1, 4β,8α-dihydroxy-5β-isobutyryloxy-9β-3-methylbutyryloxy-3-oxo-germacran-6α, 12-olide] | 29.39 ± 0.17 µM | 17 ± 2.23 µM | > 40 µM | – | – | –
2 | C=C1C(=O)O[C@H]2[C@H]1[C@@H](O)[C@H](OC(=O)CC(C)C)[C@H](C)CCC(=O)[C@](C)(O)[C@@H]2OC(=O)CC(C)C [Compound 2, divarolide E] | 16.8 ± 0.27 µM | 7.47 ± 0.21 µM | 30.7 ± 0.51 µM | – | – | –
3 | C=C(C)C(=O)O[C@H]1[C@H](O)[C@H]2C(=C)C(=O)O[C@@H]2[C@@H](OC(=O)C(C)C)[C@@](C)(O)C(=O)CC[C@H]1C [Compound 3, divarolide F] | > 40 µM | > 40 µM | > 40 µM | – | – | –
4 | C=C1C(=O)OC2C1C(O)C(OC(=O)C(C)CC)C(C)CCC(=O)C(C)(O)C2OC(=O)C(C)CC (stereo not drawn) [Compound 4, divarolide G] | > 40 µM | > 40 µM | > 40 µM | – | – | –
5 | C=C1C(=O)O[C@H]2[C@H]1[C@@H](O)[C@H](OC(=O)CC(C)C)[C@H](C)CCC(=O)[C@](C)(O)[C@@H]2OC(=O)C(C)CC (stereo partly drawn) [Compound 5, 4β,8α-dihydroxy-5β-2-methylbutyryloxy-9β-3-methylbutyryloxy-3-oxo-germacran-7β, 12α-olide] | 11.6 ± 1 µM | 31.64 ± 0.16 µM | > 40 µM | – | – | –
6 | N.N.[Cl][Pt][Cl] [cis-platin, reference compound] | – | – | – | 15.3 ± 0.35 µM | 13 ± 1.49 µM | 7.9 ± 0.23 µM
